Results from patent US9012489B2, “Phenyl-3-aza-bicyclo[3.1.0]hex-3-yl-methanones and the use thereof as medicament” (Boehringer Ingelheim International GmbH, priority 2011, dated 2015).

molecular target: T1, GlyT1 transporter (Homo sapiens, UniProt P48067); test: GlyT1 assay: 3H-glycine uptake into SK-N-MC cells (Cytostar-T format); assay type: cell-based; settings: glycine uptake in human SK-N-MC cells endogenously expressing GlyT1; 500 nM glycine, 1% DMSO, signal recorded over 60 min
T1 construct: endogenously expressing the GlyT1 transporter; host or cells: SK-N-MC human neuroblastoma cells
T1 sequence (P48067 1-706): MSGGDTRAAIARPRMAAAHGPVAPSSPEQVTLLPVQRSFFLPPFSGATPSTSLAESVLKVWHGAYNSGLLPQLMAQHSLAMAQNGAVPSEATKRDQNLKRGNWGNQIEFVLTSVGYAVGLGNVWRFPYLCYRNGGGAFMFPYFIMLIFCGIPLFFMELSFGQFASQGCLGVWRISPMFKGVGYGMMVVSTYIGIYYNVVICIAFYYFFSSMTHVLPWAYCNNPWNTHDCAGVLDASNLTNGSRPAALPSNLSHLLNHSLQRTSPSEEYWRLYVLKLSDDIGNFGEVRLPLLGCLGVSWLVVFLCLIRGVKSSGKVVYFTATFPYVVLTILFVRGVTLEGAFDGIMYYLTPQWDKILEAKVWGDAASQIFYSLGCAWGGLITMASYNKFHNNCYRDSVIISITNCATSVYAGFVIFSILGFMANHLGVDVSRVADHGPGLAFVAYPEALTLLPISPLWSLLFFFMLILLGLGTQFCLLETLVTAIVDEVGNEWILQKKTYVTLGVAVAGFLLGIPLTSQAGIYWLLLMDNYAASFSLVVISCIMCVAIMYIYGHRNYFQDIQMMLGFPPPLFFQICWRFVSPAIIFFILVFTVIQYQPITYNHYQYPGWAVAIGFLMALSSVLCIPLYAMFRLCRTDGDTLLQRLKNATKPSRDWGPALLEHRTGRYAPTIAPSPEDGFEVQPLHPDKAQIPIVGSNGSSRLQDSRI
How it was run: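 Endogenous GlyT1 in human SK-N-MC cells, confluent after 16-18 h, in HBSS with 5 mM alanine. Compounds preincubated about 5-10 min, then 500 nM glycine (half ³H) added, 1% DMSO. Scintillation-proximity uptake recorded kinetically over 60 min; IC50 from linear-range slopes over 8 concentrations, nonspecific uptake defined with 10 μM RG-1678.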

| Compound | IC50 |
| --- | --- |
| Cc1nc(C23CC2CN(C(=O)c2cc(S(C)(=O)=O)ccc2O[C@@H](C)C(F)(F)F)C3)cs1 (mixture of isomers) [Example 25, [5-Methanesulfonyl-2-(2,2,2-trifluoro-1-methyl-ethoxy)-phenyl]-[1-(2-methyl-thiazol-4-yl)-3-aza-bicyclo[3.1.0]hex-3-yl]-methanone] | 22 nM |
| C[C@H](Oc1ccc(S(C)(=O)=O)cc1C(=O)N1CC2CC2(c2ncco2)C1)C(F)(F)F (mixture of isomers) [Example 20, [5-Methanesulfonyl-2-(2,2,2-trifluoro-1-methyl-ethoxy)-phenyl]-(1-oxazol-2-yl-3-aza-bicyclo[3.1.0]hex-3-yl)-methanone] | 101 nM |
| C[C@@H](Oc1ccc(S(C)(=O)=O)cc1C(=O)N1CC2CC2(c2coc(C3CC3)n2)C1)C(F)(F)F (mixture of isomers) [Example 81, [1-(2-Cyclopropyl-oxazol-4-yl)-3-aza-bicyclo[3.1.0]hex-3-yl]-[5-methanesulfonyl-2-((S)-2,2,2-trifluoro-1-methyl-ethoxy)-phenyl]-methanone] | 6 nM |
| C[C@H](Oc1ccc(S(C)(=O)=O)cc1C(=O)N1CC2CC2(c2cccc(C(F)(F)F)n2)C1)C(F)(F)F (mixture of isomers) [Example 54, [5-Methanesulfonyl-2-(2,2,2-trifluoro-1-methyl-ethoxy)-phenyl]-[1-(6-trifluoromethyl-pyridin-2-yl)-3-aza-bicyclo[3.1.0]hex-3-yl]-methanone] | 16 nM |
| CS(=O)(=O)c1ccc(O[C@@H]2CCOC2)c(C(=O)N2CC3CC3(c3noc(C(F)(F)F)n3)C2)c1 (single isomer, unassigned) [Example 139, [5-Methanesulfonyl-2-(tetrahydro-furan-3-yloxy)-phenyl]-[1-(5-trifluoromethyl-[1,2,4]oxadiazol-3-yl)-3-aza-bicyclo[3.1.0]hex-3-yl]-methanone] | 253 nM |
| Cc1noc(C23CC2CN(C(=O)c2cc(S(C)(=O)=O)ccc2O[C@@H](C)C(F)(F)F)C3)n1 (mixture of isomers) [Example 34, [5-Methanesulfonyl-2-(2,2,2-trifluoro-1-methyl-ethoxy)-phenyl]-[1-(3-methyl-[1,2,4]oxadiazol-5-yl)-3-aza-bicyclo[3.1.0]hex-3-yl]-methanone] | 98 nM |
| C[C@@H](Oc1ccc(S(C)(=O)=O)cc1C(=O)N1CC2CC2(c2csc(C(F)(F)F)n2)C1)C(F)(F)F (single isomer, unassigned) [Example 30, [5-Methanesulfonyl-2-(2,2,2-trifluoro-1-methyl-ethoxy)-phenyl]-[1-(2-trifluoromethyl-thiazol-4-yl)-3-aza-bicyclo[3.1.0]hex-3-yl]-methanone] | 5 nM |
| Cc1coc(C23CC2CN(C(=O)c2cc(S(C)(=O)=O)ccc2O[C@@H](C)C(F)(F)F)C3)n1 (mixture of isomers) [Example 33, [5-Methanesulfonyl-2-(2,2,2-trifluoro-1-methyl-ethoxy)-phenyl]-[1-(4-methyl-oxazol-2-yl)-3-aza-bicyclo[3.1.0]hex-3-yl]-methanone] | 190 nM |
| CCS(=O)(=O)c1ccc(O[C@@H](C)C(F)(F)F)c(C(=O)N2CC3CC3(c3cc(C(F)(F)F)on3)C2)c1 (single isomer, unassigned) [Example 103, [5-Ethanesulfonyl-2-(2,2,2-trifluoro-1-methyl-ethoxy)-phenyl]-[1-(5-trifluoromethyl-isoxazol-3-yl)-3-aza-bicyclo[3.1.0]hex-3-yl]-methanone] | 7 nM |
| Cc1c(C23CC2CN(C(=O)c2cc(S(C)(=O)=O)ccc2O[C@@H](C)C(F)(F)F)C3)noc1C(F)(F)F (single isomer, unassigned) [Example 164] | 28 nM |

The next lines start with the values.

| IC50 | Compound |
| --- | --- |
| 100 nM | C[C@H](Oc1ccc(S(C)(=O)=O)cc1C(=O)N1CC2CC2(c2noc(C3(C(F)(F)F)CC3)n2)C1)C(F)(F)F (single isomer, unassigned) [Example 67, [5-Methanesulfonyl-2-(2,2,2-trifluoro-1-methyl-ethoxy)-phenyl]-{1-[5-(1-trifluoromethyl-cyclopropyl)-[1,2,4]oxadiazol-3-yl]-3-aza-bicyclo[3.1.0]hex-3-yl}-methanone] |
| 27 nM | CC(C)Oc1ccc(S(C)(=O)=O)cc1C(=O)N1CC2CC2(c2noc(C(F)(F)F)n2)C1 (racemic) [Example 96, (2-Isopropoxy-5-methanesulfonyl-phenyl)-[1-(5-trifluoromethyl-[1,2,4]oxadiazol-3-yl)-3-aza-bicyclo[3.1.0]hex-3-yl]-methanone] |
| 171 nM | C[C@@H](Oc1ccc(S(C)(=O)=O)cc1C(=O)N1CC2CC2(c2nc(C(F)(F)F)co2)C1)C(F)(F)F (single isomer, unassigned) [Example 114, [5-Methanesulfonyl-2-(2,2,2-trifluoro-1-methyl-ethoxy)-phenyl]-[1-(4-trifluoromethyl-oxazol-2-yl)-3-aza-bicyclo[3.1.0]hex-3-yl]-methanone] |
| 403 nM | C[C@H](Oc1ccc(S(C)(=O)=O)cc1C(=O)N1CC2CC2(c2ncc(C(F)(F)F)o2)C1)C(F)(F)F (single isomer, unassigned) [Example 133, [5-Methanesulfonyl-2-(2,2,2-trifluoro-1-methyl-ethoxy)-phenyl]-[1-(5-trifluoromethyl-oxazol-2-yl)-3-aza-bicyclo[3.1.0]hex-3-yl]-methanone] |
| 110 nM | CCS(=O)(=O)c1ccc(O[C@@H](C)C(F)(F)F)c(C(=O)N2CC3CC3(c3nccc(C(F)(F)F)n3)C2)c1 (single isomer, unassigned) [Example 75, [5-Ethanesulfonyl-2-(2,2,2-trifluoro-1-methyl-ethoxy)-phenyl]-[1-(4-trifluoromethyl-pyrimidin-2-yl)-3-aza-bicyclo[3.1.0]hex-3-yl]-methanone] |
| 14 nM | C[C@H](Oc1ccc(S(C)(=O)=O)cc1C(=O)N1CC2CC2(c2nccc(C(F)(F)F)n2)C1)C(F)(F)F (mixture of isomers) [Example 15, [5-Methanesulfonyl-2-(2,2,2-trifluoro-1-methyl-ethoxy)-phenyl]-[1-(4-trifluoromethyl-pyrimidin-2-yl)-3-aza-bicyclo[3.1.0]hex-3-yl]-methanone] |
| 916 nM | C[C@H](Oc1ccc(-c2ncco2)cc1C(=O)N1CC2CC2(c2noc(C(F)(F)F)n2)C1)C(F)(F)F (mixture of isomers) [Example 100, [5-Oxazol-2-yl-2-(2,2,2-trifluoro-1-methyl-ethoxy)-phenyl]-[1-(5-trifluoromethyl-[1,2,4]oxadiazol-3-yl)-3-aza-bicyclo[3.1.0]hex-3-yl]-methanone] |
| 7 nM | C[C@H](Oc1ccc(S(C)(=O)=O)cc1C(=O)N1CC2CC2(c2cc(C(F)(F)F)on2)C1)C(F)(F)F (single isomer, unassigned) [Example 47, [5-Methanesulfonyl-2-(2,2,2-trifluoro-1-methyl-ethoxy)-phenyl]-[1-(5-trifluoromethyl-isoxazol-3-yl)-3-aza-bicyclo[3.1.0]hex-3-yl]-methanone] |
| 10 nM | C[C@H](Oc1ccc(S(C)(=O)=O)cc1C(=O)N1CC2CC2(c2nccc(C(F)(F)F)n2)C1)C(F)(F)F (single isomer, unassigned) [Example 16, [5-Methanesulfonyl-2-(2,2,2-trifluoro-1-methyl-ethoxy)-phenyl]-[1-(4-trifluoromethyl-pyrimidin-2-yl)-3-aza-bicyclo[3.1.0]hex-3-yl]-methanone] |
| 9 nM | C[C@@H](Oc1ccc(S(C)(=O)=O)cc1C(=O)N1CC2CC2(c2noc(C(F)(F)F)n2)C1)C(F)(F)F (single isomer, unassigned) [Example 4, [5-Methanesulfonyl-2-(2,2,2-trifluoro-1-methyl-ethoxy)-phenyl]-[1-(5-trifluoromethyl-[1,2,4]oxadiazol-3-yl)-3-aza-bicyclo[3.1.0]hex-3-yl]-methanone] |
| 16 nM | C[C@H](Oc1ccc(S(C)(=O)=O)cc1C(=O)N1CC2CC2(c2nc(C(F)(F)F)no2)C1)C(F)(F)F (single isomer, unassigned) [Example 84, [5-Methanesulfonyl-2-(2,2,2-trifluoro-1-methyl-ethoxy)-phenyl]-[1-(3-trifluoromethyl-[1,2,4]oxadiazol-5-yl)-3-aza-bicyclo[3.1.0]hex-3-yl]-methanone] |
| 503 nM | C[C@@H](Oc1ccc(S(C)(=O)=O)cc1C(=O)N1CC2CC2(c2nnc(C(F)(F)F)o2)C1)C(F)(F)F (single isomer, unassigned) [Example 124, [5-Methanesulfonyl-2-(2,2,2-trifluoro-1-methyl-ethoxy)-phenyl]-[1-(5-trifluoromethyl-[1,3,4]oxadiazol-2-yl)-3-aza-bicyclo[3.1.0]hex-3-yl]-methanone] |
| 16.5 nM | Cc1nc(C23CC2CN(C(=O)c2cc(S(C)(=O)=O)ccc2O[C@@H](C)C(F)(F)F)C3)no1 (mixture of isomers) [Example 6, [5-Methanesulfonyl-2-(2,2,2-trifluoro-1-methyl-ethoxy)-phenyl]-[1-(5-methyl-[1,2,4]oxadiazol-3-yl)-3-aza-bicyclo[3.1.0]hex-3-yl]-methanone] |
